Assay results published in ChEMBL document CHEMBL3991601, “The target landscape of clinical kinase drugs” (Science, 2017).
Activity calls are given as the source filed them. For most assays here, no stated cut-off is given here; in the data, actives have a measured Kd and inactives only a lower limit.

Columns and labels:
[1] = biological target: T1, Glycogen phosphorylase, liver form (Homo sapiens, UniProt P06737); type: subcellular, K-562, COLO 205, SK-N-BE(2) and MV-4-11, Cell lysate; conditions: read-out: Kd apparent
T1 sequence (P06737 whole entry): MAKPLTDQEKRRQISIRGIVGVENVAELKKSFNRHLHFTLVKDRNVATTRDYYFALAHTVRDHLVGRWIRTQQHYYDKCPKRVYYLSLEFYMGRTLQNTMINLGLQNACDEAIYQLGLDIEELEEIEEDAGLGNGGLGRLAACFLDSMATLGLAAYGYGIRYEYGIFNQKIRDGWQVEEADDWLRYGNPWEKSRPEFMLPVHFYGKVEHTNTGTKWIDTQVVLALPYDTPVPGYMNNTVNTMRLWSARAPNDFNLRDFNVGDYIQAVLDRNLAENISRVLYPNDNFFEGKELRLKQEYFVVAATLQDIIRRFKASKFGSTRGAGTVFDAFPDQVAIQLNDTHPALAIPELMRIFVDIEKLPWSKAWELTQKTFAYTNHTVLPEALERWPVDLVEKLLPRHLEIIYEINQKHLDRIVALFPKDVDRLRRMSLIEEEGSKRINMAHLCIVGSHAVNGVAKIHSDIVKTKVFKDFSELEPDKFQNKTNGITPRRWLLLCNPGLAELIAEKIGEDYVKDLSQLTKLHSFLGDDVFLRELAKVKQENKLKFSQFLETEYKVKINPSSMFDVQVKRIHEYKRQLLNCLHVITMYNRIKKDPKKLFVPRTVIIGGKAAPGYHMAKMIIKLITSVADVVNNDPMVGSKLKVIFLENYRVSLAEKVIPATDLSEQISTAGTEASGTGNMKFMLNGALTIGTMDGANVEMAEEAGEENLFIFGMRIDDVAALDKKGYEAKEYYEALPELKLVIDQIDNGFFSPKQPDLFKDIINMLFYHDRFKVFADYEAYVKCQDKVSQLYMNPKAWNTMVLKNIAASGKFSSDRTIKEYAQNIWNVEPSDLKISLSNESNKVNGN

[2] = biological target: Cyclin-dependent kinase 5 (Homo sapiens, UniProt Q00535)
Chain of Cyclin-dependent kinase 5 (Q00535 whole entry, the tested form may be a part): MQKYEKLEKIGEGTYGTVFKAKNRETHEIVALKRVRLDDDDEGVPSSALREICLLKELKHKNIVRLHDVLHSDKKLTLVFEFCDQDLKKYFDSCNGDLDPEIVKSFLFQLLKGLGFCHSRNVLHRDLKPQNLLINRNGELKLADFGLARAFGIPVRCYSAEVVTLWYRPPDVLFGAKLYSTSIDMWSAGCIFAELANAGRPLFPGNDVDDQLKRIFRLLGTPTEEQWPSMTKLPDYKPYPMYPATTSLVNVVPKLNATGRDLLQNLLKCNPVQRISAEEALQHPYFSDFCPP

[3] = biological target: T2, Discoidin domain-containing receptor 2 (Homo sapiens, UniProt Q16832)
T2 sequence (Q16832 whole entry): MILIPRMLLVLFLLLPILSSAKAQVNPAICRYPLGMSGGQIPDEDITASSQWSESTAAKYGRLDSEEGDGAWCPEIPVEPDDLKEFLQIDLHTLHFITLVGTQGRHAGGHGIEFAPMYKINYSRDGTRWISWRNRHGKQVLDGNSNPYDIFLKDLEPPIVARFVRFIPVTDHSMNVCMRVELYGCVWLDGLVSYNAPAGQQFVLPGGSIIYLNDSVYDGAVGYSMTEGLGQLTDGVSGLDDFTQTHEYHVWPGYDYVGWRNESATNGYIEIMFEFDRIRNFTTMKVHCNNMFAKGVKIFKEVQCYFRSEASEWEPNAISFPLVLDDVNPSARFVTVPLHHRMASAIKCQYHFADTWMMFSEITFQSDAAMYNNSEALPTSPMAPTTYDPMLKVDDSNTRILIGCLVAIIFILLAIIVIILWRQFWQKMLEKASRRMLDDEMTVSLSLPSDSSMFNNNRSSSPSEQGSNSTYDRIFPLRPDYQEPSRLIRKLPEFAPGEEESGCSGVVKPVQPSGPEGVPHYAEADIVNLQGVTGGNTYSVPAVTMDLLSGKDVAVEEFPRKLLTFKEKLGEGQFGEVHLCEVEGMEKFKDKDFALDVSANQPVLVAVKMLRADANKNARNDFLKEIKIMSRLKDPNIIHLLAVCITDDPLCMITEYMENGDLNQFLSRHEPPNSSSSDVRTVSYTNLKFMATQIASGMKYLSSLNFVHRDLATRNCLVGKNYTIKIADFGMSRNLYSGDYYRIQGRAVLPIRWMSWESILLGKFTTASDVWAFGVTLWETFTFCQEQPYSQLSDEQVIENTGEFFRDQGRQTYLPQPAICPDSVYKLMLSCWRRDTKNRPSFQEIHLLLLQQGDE

[4] = biological target: T3, Receptor-type tyrosine-protein kinase FLT3 (Homo sapiens, UniProt P36888)
T3 sequence (P36888 whole entry): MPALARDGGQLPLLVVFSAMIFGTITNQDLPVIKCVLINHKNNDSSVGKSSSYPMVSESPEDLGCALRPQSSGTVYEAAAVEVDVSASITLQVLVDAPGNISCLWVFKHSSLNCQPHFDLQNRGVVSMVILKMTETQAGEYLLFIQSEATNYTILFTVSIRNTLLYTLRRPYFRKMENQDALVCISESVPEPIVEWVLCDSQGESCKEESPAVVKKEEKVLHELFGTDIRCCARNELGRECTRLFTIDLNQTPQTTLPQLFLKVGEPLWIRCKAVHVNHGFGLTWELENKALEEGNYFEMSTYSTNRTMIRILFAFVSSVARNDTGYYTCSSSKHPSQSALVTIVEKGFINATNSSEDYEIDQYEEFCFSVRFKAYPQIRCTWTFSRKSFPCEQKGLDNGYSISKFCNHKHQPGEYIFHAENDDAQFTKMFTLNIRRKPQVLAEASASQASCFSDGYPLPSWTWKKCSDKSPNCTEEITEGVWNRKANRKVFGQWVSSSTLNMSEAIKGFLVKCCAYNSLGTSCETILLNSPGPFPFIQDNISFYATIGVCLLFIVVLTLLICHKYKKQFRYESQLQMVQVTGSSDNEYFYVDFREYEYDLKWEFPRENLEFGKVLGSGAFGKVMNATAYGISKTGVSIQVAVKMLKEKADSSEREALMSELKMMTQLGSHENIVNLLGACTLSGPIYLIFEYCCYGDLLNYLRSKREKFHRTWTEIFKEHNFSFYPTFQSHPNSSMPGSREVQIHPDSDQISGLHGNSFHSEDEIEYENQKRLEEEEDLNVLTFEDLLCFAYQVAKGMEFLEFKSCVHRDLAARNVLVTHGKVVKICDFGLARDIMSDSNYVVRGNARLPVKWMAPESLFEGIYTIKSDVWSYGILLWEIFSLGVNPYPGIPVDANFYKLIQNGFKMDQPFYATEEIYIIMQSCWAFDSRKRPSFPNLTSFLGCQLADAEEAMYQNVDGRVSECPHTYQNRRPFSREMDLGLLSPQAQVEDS

[5] = biological target: Rho-associated protein kinase 1 (Homo sapiens, UniProt Q13464)
Chain of Rho-associated protein kinase 1 (Q13464 whole entry): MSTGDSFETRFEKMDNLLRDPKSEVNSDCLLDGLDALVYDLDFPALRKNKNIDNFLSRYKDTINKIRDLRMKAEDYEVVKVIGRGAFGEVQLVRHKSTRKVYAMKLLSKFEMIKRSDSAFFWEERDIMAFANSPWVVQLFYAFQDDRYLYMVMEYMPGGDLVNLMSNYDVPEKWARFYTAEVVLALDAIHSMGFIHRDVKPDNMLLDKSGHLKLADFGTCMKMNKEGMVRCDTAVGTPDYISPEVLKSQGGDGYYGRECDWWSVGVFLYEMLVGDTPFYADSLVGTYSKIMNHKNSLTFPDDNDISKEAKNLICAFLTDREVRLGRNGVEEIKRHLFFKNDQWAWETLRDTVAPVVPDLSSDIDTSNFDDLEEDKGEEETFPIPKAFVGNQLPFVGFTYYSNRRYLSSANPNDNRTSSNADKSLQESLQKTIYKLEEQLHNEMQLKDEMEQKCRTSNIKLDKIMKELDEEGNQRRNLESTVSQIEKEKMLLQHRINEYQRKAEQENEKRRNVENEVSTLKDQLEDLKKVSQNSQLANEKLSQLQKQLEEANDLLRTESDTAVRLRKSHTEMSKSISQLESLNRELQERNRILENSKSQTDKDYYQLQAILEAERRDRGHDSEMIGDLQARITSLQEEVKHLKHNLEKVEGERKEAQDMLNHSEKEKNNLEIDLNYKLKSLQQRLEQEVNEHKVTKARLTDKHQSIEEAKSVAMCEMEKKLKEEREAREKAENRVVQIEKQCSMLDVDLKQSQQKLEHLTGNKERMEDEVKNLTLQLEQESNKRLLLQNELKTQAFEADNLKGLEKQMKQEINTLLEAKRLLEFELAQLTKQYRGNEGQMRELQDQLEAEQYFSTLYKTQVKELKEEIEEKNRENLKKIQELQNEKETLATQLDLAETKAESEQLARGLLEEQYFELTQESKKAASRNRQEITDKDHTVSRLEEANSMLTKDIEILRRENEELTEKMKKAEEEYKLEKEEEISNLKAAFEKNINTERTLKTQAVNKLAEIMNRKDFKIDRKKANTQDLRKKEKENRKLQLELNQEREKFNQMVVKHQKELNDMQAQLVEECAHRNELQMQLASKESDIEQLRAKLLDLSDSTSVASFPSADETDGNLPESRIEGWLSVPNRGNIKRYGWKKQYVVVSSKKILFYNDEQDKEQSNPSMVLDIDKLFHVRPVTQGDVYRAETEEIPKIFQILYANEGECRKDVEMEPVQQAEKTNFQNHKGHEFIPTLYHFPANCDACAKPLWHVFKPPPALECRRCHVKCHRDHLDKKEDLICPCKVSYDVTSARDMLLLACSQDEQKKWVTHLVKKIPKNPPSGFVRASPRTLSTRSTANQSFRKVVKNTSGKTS

[6] = biological target: TGF-beta receptor type-2 (Homo sapiens, UniProt P37173)
Chain of TGF-beta receptor type-2 (P37173 whole entry): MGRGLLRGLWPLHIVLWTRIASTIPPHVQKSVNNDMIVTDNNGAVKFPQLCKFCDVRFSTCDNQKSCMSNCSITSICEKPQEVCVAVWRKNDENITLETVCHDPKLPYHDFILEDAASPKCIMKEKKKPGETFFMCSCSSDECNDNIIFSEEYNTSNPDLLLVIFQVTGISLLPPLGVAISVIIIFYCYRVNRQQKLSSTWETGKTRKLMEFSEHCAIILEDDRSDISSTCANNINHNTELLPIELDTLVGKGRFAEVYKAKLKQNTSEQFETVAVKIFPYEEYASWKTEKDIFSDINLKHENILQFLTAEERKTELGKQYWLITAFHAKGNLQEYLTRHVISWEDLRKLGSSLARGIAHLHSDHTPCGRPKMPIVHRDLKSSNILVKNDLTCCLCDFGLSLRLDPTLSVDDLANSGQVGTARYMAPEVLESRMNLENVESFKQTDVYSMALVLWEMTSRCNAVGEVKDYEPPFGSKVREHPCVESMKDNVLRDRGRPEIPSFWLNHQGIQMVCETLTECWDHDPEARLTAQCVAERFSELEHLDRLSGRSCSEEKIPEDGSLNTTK

In the case of `C[C@H]1CNCCCN1S(=O)(=O)c1cccc2cncc(F)c12`, the Kd [1] is reported as > 30 µM (inactive), the Kd [2] is reported as > 30 µM (inactive) and the Kd [3] is reported as > 30 µM (inactive). For the same compound, the Kd [4] was > 30 µM (inactive).
In the case of `CCNC(=O)C#Cc1ccc2c(c1)NC(=O)/C2=C(\Nc1ccc(CN(C)C)cc1)c1ccccc1`, the Kd [1] is reported as > 30 µM (inactive), the Kd [2] is reported as > 30 µM (inactive) and the Kd [4] is reported as 0.148 µM (active). For the same compound, the Kd [5] was > 30 µM (inactive) and the Kd [6] was > 30 µM (inactive).
`COc1cc(Nc2ncc3c(n2)-c2ccc(Cl)cc2C(c2c(F)cccc2OC)=NC3)ccc1C(=O)O` [ALISERTIB] was tested, and the Kd [1] was > 30 µM (inactive), the Kd [3] was > 30 µM (inactive) and the Kd [6] was > 30 µM (inactive).
In the case of `Cc1nc(NC(=O)N2CCC[C@H]2C(N)=O)sc1-c1ccnc(C(C)(C)C(F)(F)F)c1` [ALPELISIB], the Kd [1] is reported as > 30 µM (inactive), the Kd [2] is reported as > 30 µM (inactive) and the Kd [3] is reported as > 30 µM (inactive). For the same compound, the Kd [4] was > 30 µM (inactive) and the Kd [5] was > 30 µM (inactive).
`O=C(Nc1c[nH]nc1-c1nc2cc(CN3CCOCC3)ccc2[nH]1)NC1CC1` [AT-9283] was tested, and the Kd [1] was > 30 µM (inactive), the Kd [3] was > 30 µM (inactive) and the Kd [5] was > 30 µM (inactive).
With `CNC(=O)c1ccccc1Sc1ccc2c(/C=C/c3ccccn3)n[nH]c2c1` [AXITINIB] the Kd [1] was > 30 µM (inactive).
In the case of `NC(=O)Nc1cc(-c2cccc(F)c2)sc1C(=O)N[C@H]1CCCNC1` [AZD-7762], the Kd [1] is reported as > 30 µM (inactive), the Kd [2] is reported as > 30 µM (inactive) and the Kd [3] is reported as > 30 µM (inactive). The Kd [4] was > 30 µM (inactive) and the Kd [6] was > 30 µM (inactive).
For `CC(C)(C)c1nc(-c2cccc(NS(=O)(=O)c3c(F)cccc3F)c2F)c(-c2ccnc(N)n2)s1` [DABRAFENIB], the Kd [1] was > 30 µM (inactive), the Kd [2] was 1.07 µM (active) and the Kd [3] was > 30 µM (inactive). The Kd [6] was 2.53 µM (active).
For `Cn1cc(C2=C(c3cn(C4CCN(Cc5ccccn5)CC4)c4ccccc34)C(=O)NC2=O)c2ccccc21` [ENZASTAURIN], the Kd [1] was > 30 µM (inactive).
`C[C@@H](Oc1cc(-n2cnc3ccc(CN4CCN(C)CC4)cc32)sc1C(N)=O)c1ccccc1C(F)(F)F` [GSK-461364] was tested, and the Kd [1] was > 30 µM (inactive).
For `CCn1cc(-c2ccnc3[nH]c(-c4cccc(CN(C)C)c4)cc23)c(-c2ccc(NC(=O)N(C)C)cc2)n1` [GSK-1070916], the Kd [1] was > 30 µM (inactive), the Kd [2] was > 30 µM (inactive) and the Kd [3] was 1.27 µM (active). The Kd [5] was > 30 µM (inactive) and the Kd [6] was > 30 µM (inactive).
`O=C(Nc1cc(C(F)(F)F)cc(C(F)(F)F)c1)c1cc(Cl)ccc1O` [IMD-0354] was tested, and the Kd [1] was > 30 µM (inactive), the Kd [3] was > 30 µM (inactive) and the Kd [6] was > 30 µM (inactive).
In the case of `CNC(=O)c1cccc2cc(Oc3ccnc4cc(OCC5(N)CC5)c(OC)cc34)ccc12` [LUCITANIB], the Kd [1] is reported as > 30 µM (inactive), the Kd [2] is reported as > 30 µM (inactive) and the Kd [3] is reported as 0.094 µM (active). For the same compound, the Kd [4] was > 30 µM (inactive) and the Kd [6] was > 30 µM (inactive).
